Patent US10125097B2, “1- [1-(benzoyl)-pyrrolidine-2-carbonyl]-pyrrolidine-2-carbonitrile derivatives” (UNIVERSITAT DE BARCELONA, priority 2012, dated 2018)

Test system: MK-801-treated rodents
Experiment: Passive avoidance task in MK-801 cognition impairment model
Assay type: in vivo, rodents (mice or rats)
Settings: 5 mg/Kg s.c. 35 min before shock session; MK-801 0.2 mg/kg i.p.; FIG. 2
Procedure: The new compounds were evaluated for their efficacy as cognition enhancers in a pharmacological model for cognitive impairment. The effects of the new compounds were evaluated in untreated and MK-801-treated rodents (mice or rats). MK-801 is a non-competitive antagonist of the N-Methyl-D-aspartate (NMDA) receptor which impairs animal performance in various learning and memory paradigms (Castellano C et al., Curr. Drug Targets 2001; 2:273-83; Riedel G et al., Behav. Brain Res. 2003; 140:1-47). MK-801 also produces various effects on rodent behavior, including deficits in sensory processing, hypermotility, stereotypy and ataxia. […]
For the evaluation of the passive avoidance task, a two-compartment box with a light compartment and a dark compartment of the same dimensions was used. […] In the evaluation session, the time which the animal takes to enter the dark compartment (in seconds) was measured, as a sign of memory retention of the shock received in the dark compartment during the previous session. […] The corresponding evaluated compound was injected s.c. 35 min before the shock session, followed 15 minutes later by i.p. injection of MK-801, or PBS in the case of the control, in the same doses and volume as described for the object recognition test.

COc1cc(C(=O)N2CC(F)(F)C[C@H]2C(=O)N2CCC[C@H]2C#N)cc(OC)c1OCc1ccccc1 [Example 4, (S)-1-((2S)-1-(4-(benzyloxy)-3,5-dimethoxybenzoyl)-4,4-difluoropyrrolidine-2-carbonyl)pyrrolidine-2-carbonitrile]
Reversal of MK-801-induced memory impairment in the passive avoidance test (latency to enter dark compartment): able to reverse MK-801-induced memory impairment
